The results in this text go back to patent publication US8987256B2, “Oxo-heterocyclic substituted carboxylic acid derivatives and the use thereof” (Bayer Intellectual Property GmbH, priority 2008, dated 2015).

The structures appear in SMILES notation.

Experiment [1] deals with T1, recombinant guanylate cyclase reporter cell line (Rattus norvegicus, UniProt P20595).
T1 construct: expressed in transfected cells; host or cells: CHO reporter cell line
T1 sequence (P20595 1-619): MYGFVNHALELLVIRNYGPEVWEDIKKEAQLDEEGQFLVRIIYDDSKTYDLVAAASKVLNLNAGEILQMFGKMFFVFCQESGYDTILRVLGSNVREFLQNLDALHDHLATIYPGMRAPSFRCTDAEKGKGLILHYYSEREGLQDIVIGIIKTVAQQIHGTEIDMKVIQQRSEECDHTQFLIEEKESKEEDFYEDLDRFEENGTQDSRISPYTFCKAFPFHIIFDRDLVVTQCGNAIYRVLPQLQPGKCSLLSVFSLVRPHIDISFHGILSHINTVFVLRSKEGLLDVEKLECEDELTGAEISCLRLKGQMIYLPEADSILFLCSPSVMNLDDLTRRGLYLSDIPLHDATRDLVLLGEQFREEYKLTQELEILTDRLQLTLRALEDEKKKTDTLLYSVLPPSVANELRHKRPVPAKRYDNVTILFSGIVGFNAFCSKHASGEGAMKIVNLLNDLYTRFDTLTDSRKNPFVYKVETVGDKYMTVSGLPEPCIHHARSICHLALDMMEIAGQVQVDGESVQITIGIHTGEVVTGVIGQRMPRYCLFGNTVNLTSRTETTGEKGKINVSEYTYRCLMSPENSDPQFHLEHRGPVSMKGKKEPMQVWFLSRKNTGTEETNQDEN
T1 sequence (P19686 1-690 partner): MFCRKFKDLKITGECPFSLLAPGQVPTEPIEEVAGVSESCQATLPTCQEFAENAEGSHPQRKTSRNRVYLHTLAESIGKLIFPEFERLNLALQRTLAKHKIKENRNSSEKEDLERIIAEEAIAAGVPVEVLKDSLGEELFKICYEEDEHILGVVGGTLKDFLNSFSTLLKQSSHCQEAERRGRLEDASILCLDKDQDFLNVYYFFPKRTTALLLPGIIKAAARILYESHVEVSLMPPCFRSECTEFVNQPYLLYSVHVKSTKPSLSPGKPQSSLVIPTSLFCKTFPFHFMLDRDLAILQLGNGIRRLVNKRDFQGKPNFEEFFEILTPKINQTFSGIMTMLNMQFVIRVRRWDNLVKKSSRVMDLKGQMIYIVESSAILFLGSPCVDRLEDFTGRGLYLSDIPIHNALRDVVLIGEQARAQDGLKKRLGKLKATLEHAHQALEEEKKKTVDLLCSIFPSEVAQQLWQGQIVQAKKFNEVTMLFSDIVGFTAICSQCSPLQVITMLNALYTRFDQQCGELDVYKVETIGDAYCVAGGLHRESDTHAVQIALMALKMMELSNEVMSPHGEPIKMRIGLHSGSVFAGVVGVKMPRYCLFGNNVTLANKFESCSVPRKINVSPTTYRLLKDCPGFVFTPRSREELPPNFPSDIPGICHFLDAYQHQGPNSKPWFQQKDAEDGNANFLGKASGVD
Put plainly: sGC-activating activity in the CHO reporter cell in vitro. In kind it is cell-based. On the procedure: The cellular action of the compounds according to the invention is determined at a recombinant guanylate cyclase reporter cell line, as described in F. Wunder et al., Anal. Biochem. 339, 104-112 (2005).

Experiment [2] concerns the target T2, soluble guanylate cyclase (sGC) (Rattus norvegicus, UniProt P20595).
T2 construct: made in house; host or cells: baculovirus/Sf9 insect cells
T2 sequence (P20595 1-619): T1 sequence (P20595 1-619)
T2 sequence (P19686 1-690 partner): T1 sequence (P19686 1-690 partner)
Put plainly: Activating action at the sGC enzyme in vitro (PPi detection, luciferase). Format: biochemical. Particulars: for EC50: read-out: EC50 (concentration at 50% of maximum efficacy), activating action at the sGC enzyme. As for the experimental part: Soluble guanylate cyclase (sGC) converts on stimulation GTP into cGMP and pyrophosphate (PPi). PPi is detected with the aid of the assay described below. The signal produced in the assay increases as the reaction progresses and serves as a measure of the sGC enzyme activity under the given stimulation.
To carry out the assay, 29 μl of enzyme solution [0-10 nM soluble guanylate cyclase (prepared according to Honicka et al., J. Mol. Med. 77, 14-23 (1999)) in 50 mM TEA, 2 mM MgCl2, 0.1% BSA (fraction V), 0.005% Brij®, pH 7.5] are initially introduced into a microplate, and 1 μl of the substance to be tested (as a serially diluted solution in DMSO) is added. The mixture is incubated at room temperature for 10 min. Then 20 μl of detection mix [1.2 nM Firefly Luciferase (Photinus pyralis luciferase, Promega), 29 μM dehydroluciferin (prepared according to Bitler & McElroy, Arch. Biochem. Biophys. 72, 358 (1957)), 122 μM luciferin (Promega), 153 μM ATP (Sigma) and 0.4 mM DTT (Sigma) in 50 mM TEA, 2 mM MgCl2, 0.1% BSA (fraction V), 0.005% Brij®, pH 7.5] are added. The enzyme reaction is started by adding 20 μl of substrate solution [1.25 mM guanosine 5′-triphosphate (Sigma) in 50 mM TEA, 2 mM MgCl2, 0.1% BSA (fraction V), 0.005% Brij®, pH 7.5] and measured continuously in a luminometer. The extent of the stimulation by the substance to be tested can be determined relative to the signal of the unstimulated reaction.
The activation of heme-free guanylate cyclase is examined by addition of 25 μM of 1H-1,2,4-oxadiazolo[4,3-a]quinoxalin-1-one (ODQ) to the enzyme solution and subsequent incubation for 30 minutes and compared to the stimulation of the native enzyme.

For the compound `CC(C(C(=O)Nc1cccc(CC2(C(=O)O)CC2)c1)c1ccc(Cn2nc(C(F)(F)F)ccc2=O)cc1)C(F)(F)F` (single isomer, unassigned) [Example 181, 1-(3-{[4,4,4-trifluoro-3-methyl-2-(4-{[6-oxo-3-(trifluoromethyl)pyridazin-1(6H)-yl]methyl}-phenyl)-butanoyl]amino}benzyl)cyclopropanecarboxylic acid], the “MEC (minimum effective concentration), sGC-activating activity in the CHO reporter cell” value (from here on “MEC … in the CHO reporter cell”) in experiment [1] amounted to 0.7 nM. Also, in experiment [2], the “MEC (minimum effective concentration), activating action at the sGC enzyme” value (shortened to “MEC … at the sGC enzyme”) turned out to be 1.4 nM and the EC50 was found to be 69 nM.
Take `O=C(Nc1cccc(CC2(C(=O)O)CC2)c1)C(c1ccc(CN2N=C(c3ccccc3)OCC2=O)cc1)C1CCC(F)(F)C1` (single isomer, unassigned) [Example 241, 1-(3-{[(3,3-Difluorocyclopentyl) {4-[(5-oxo-2-phenyl-5,6-dihydro-4H-1,3,4-oxadiazin-4-yl)-methyl]phenyl}acetyl]amino}benzyl)cyclopropanecarboxylic acid]: the “MEC … in the CHO reporter cell” value in experiment [1] was 3 nM. In experiment [2], the “MEC … at the sGC enzyme” value was determined as 1.2 nM and the EC50 turned out to be 17 nM.
For `CCC(C(C(=O)Nc1cccc(CC2(C(=O)O)CC2)c1)c1ccc(CN2N=C(c3ccccc3)OCC2=O)cc1)C(F)(F)F` (stereo not drawn) [Example 170, 1-(3-{[2-{4-[(5-oxo-2-phenyl-5,6-dihydro-4H-1,3,4-oxadiazin-4-yl)methyl]phenyl}-3-(trifluoromethyl)-pentanoyl]amino}benzyl)cyclopropanecarboxylic acid], in experiment [1], the “MEC … in the CHO reporter cell” value is listed as 3 nM. In experiment [2], the “MEC … at the sGC enzyme” value is recorded as 1 nM and the EC50 is 11 nM.
On to `Cc1ccc(=O)n(Cc2ccc(C(C(=O)Nc3cccc(CC4(C(=O)O)CC4)c3)C3CCCC3)cc2)n1` (stereo not drawn) [Example 171, 1-{3-[(cyclopentyl{4-[(3-methyl-6-oxopyridazin-1(6H)-yl)methyl]phenyl}acetyl)amino]benzyl}-cyclopropanecarboxylic acid], for which the “MEC … in the CHO reporter cell” value in experiment [1] stood at 30 nM. For the same compound, in experiment [2], the “MEC … at the sGC enzyme” value came out at 3.7 nM and the EC50 was 59 nM.
`O=C(Nc1cccc(CC2(C(=O)O)CC2)c1)C(c1ccc(Cn2ccc(C(F)(F)F)cc2=O)cc1)C1CCCC1` (stereo not drawn) [Example 176, 1-(3-{[cyclopentyl(4-{[2-oxo-4-(trifluoromethyl)-pyridin-1(2H)-yl]methyl}phenyl)acetyl]amino}-benzyl)cyclopropanecarboxylic acid]: the “MEC … in the CHO reporter cell” value in experiment [1] was 30 nM. In experiment [2], the “MEC … at the sGC enzyme” value is 10 nM and the EC50 was 320 nM.
Regarding `CC(C(C(=O)Nc1cccc(CCC(=O)O)c1Cl)c1ccc(CN2N=C(c3ccccc3)OCC2=O)cc1)C(F)(F)F` (stereo not drawn) [Example 184, 3-{2-chloro-3-[(4,4,4-trifluoro-3-methyl-2-{4-[(5-oxo-2-phenyl-5,6-dihydro-4H-1,3,4-oxadiazin-4-yl)methyl]-phenyl}butanoyl)amino]phenyl}propanoic acid], the “MEC … in the CHO reporter cell” value in experiment [1] was 3 nM. Further, in experiment [2], the “MEC … at the sGC enzyme” value came out at 7 nM and the EC50 is 240 nM.
Consider `C[C@H]([C@H](C(=O)Nc1cccc(CC2(C(=O)O)CC2)c1)c1ccc(CN2Cc3ccccc3C2=O)cc1)C(F)(F)F` [Example 207], for which the “MEC … in the CHO reporter cell” value in experiment [1] is recorded as 3 nM. In experiment [2], the “MEC … at the sGC enzyme” value was determined as 0.5 nM and the EC50 turned out to be 11 nM.
As for `O=C(Nc1cccc(CC2(C(=O)O)CC2)c1)C(c1ccc(CN2Cc3c(F)cccc3C2=O)cc1)C1CCCC1` (stereo not drawn) [Example 213], the “MEC … in the CHO reporter cell” value in experiment [1] was found to be 3 nM. Besides, in experiment [2], the “MEC … at the sGC enzyme” value is 1.2 nM and the EC50 stood at 24 nM.
Consider `C[C@H]([C@H](C(=O)Nc1cccc(CC2(C(=O)O)CC2)c1)c1ccc(CN2Cc3c(F)cccc3C2=O)cc1)C(F)(F)F` [Example 219], for which, in experiment [1], the “MEC … in the CHO reporter cell” value was found to be 0.2 nM. Besides, in experiment [2], the “MEC … at the sGC enzyme” value stood at 0.2 nM and the EC50 is 3.6 nM.
With `C[C@@H]([C@@H](C(=O)Nc1cccc(CC2(C(=O)O)CC2)c1)c1ccc(CN2Cc3c(F)cccc3C2=O)cc1)C(F)(F)F` [Example 220], the “MEC … in the CHO reporter cell” value in experiment [1] is on record as 0.3 nM. In experiment [2], the “MEC … at the sGC enzyme” value turned out to be 2 nM and the EC50 was 75 nM.
Regarding `O=C(O)CCc1cc(F)cc(NC(=O)C(c2ccc(CN3N=C(c4ccccc4)OCC3=O)cc2)C2CCCC2)c1` (stereo not drawn) [Example 230], the “MEC … in the CHO reporter cell” value in experiment [1] is 30 nM. Besides, in experiment [2], the “MEC … at the sGC enzyme” value turned out to be 8.1 nM and the EC50 amounted to 420 nM.
For the compound `O=C(Nc1cc(CC2(C(=O)O)CC2)ccc1F)C(c1ccc(CN2N=C(c3ccccc3)OCC2=O)cc1)C1CCCC1` (stereo not drawn) [Example 231], in experiment [1], the “MEC … in the CHO reporter cell” value is given as 0.2 nM. Further, in experiment [2], the “MEC … at the sGC enzyme” value is 0.4 nM and the EC50 stood at 5.2 nM.
For `O=C(O)CCc1cc(NC(=O)C(c2ccc(CN3N=C(c4ccccc4)OCC3=O)cc2)C2CCCC2)ccc1F` (stereo not drawn) [Example 232], the “MEC … in the CHO reporter cell” value in experiment [1] is reported as 20 nM. In addition, in experiment [2], the “MEC … at the sGC enzyme” value is listed as 93 nM and the EC50 is 1100 nM.
In the case of `O=C(Nc1cccc(CC2(C(=O)O)CC2)c1F)C(c1ccc(CN2N=C(c3ccccc3)OCC2=O)cc1)C1CCCC1` (stereo not drawn) [Example 233], the “MEC … in the CHO reporter cell” value in experiment [1] is 0.3 nM. In addition, in experiment [2], the “MEC … at the sGC enzyme” value worked out at 3.3 nM and the EC50 was found to be 78 nM.
In the same order, the values of `O=C(Nc1ccc(F)c(CC2(C(=O)O)CC2)c1)C(c1ccc(CN2N=C(c3ccccc3)OCC2=O)cc1)C1CCCC1` (stereo not drawn) [Example 234] are 1 nM, 4.1 nM and 220 nM.
